Experimental findings from patent US20070037807A1, “Pyridine compounds as inhibitors of dipeptidyl peptidase IV” (priority 2003, published 2007) are described below.

Structures can show the parent of a compound that is named as a salt. Where two headings read alike, the source gives them in different places.

The target of one data set is T1, dipeptidyl peptidase IV (Rattus norvegicus, UniProt P14740).
T1 construct: from tissue; host or cells: SD rat blood plasma
The data set can be described thus: Determination of dipeptidyl peptidase IV inhibitory activity in rat plasma. It counts as biochemical, SD rat. The protocol:
Determination of Dipeptidyl Peptidase IV Inhibitory Activity in Rat Plasma
An N,N-dimethylformamide solution (1 μL) containing the test compound was added to a mixture of water (69 μL), 1 M Tris-hydrochloride buffer (10 μL, pH 7.5) and 1 mM aqueous Gly-Pro-p-NA solution (100 μL) to prepare a mixed solution. […] At the same time, an increase (ΔODc) in absorbance of the reaction mixture without the test compound, and an increase (ΔODb) in absorbance of the reaction mixture without the test compound and the enzyme were determined and percent inhibition of dipeptidyl peptidase IV enzyme activity was calculated from the following formula: {1-[(ΔODs−ΔODb)/(ΔODc−ΔODb)]}×100

Where [1] appears, read: Experimental Example 2, same manner as Experimental Example 1, SD rat plasma, Gly-Pro-p-NA substrate, 30° C., read-out: IC50 value (dipeptidyl peptidase IV inhibitory activity).

T1 sequence (P14740 37-767 limits assumed): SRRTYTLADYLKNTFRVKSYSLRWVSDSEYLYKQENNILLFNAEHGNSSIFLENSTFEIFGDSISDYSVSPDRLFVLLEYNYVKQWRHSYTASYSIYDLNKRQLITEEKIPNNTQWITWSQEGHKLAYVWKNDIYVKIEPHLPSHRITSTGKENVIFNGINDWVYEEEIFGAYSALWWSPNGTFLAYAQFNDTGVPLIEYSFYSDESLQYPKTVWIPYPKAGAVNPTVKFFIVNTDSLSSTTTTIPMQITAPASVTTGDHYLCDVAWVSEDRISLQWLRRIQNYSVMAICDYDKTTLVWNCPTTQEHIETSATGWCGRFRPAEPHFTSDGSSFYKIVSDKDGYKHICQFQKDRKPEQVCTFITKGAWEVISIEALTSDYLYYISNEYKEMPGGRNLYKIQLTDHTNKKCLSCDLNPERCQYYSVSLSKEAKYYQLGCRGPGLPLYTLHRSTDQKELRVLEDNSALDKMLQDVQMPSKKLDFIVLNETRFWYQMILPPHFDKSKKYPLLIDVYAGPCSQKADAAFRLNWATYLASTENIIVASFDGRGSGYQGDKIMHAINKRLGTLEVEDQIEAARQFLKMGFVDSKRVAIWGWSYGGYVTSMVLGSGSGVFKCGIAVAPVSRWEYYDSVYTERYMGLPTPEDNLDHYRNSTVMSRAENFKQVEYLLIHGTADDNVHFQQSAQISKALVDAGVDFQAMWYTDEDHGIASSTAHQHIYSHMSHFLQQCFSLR

Broadly, the IC50 is the midpoint of a concentration-inhibition curve. A word on the melting point: it is the temperature of the solid-liquid transition. Regarding `COC(=O)c1c(C)nc(CC(C)C)c(CN)c1-c1ccc(C)cc1` [Example 1, methyl 5-(aminomethyl)-6-isobutyl-2-methyl-4-(4-methylphenyl)nicotinate], the melting point was 56 to 57 °C. The IC50 on dipeptidyl peptidase IV (Experimental Example 1, SD rat plasma, Gly-Pro-p-NA substrate, 30° C., 1 hr, absorbance 405 nm, read-out: IC50 value (dipeptidyl peptidase IV inhibitory activity)) was 520 nM.

`Cc1nc(CC(C)C)c(CN)c(-c2ccc(Cl)cc2)c1C(=O)OC(C)(C)C` [Example 23, tert-butyl 5-(aminomethyl)-4-(4-chlorophenyl)-6-isobutyl-2-methylnicotinate] had a melting point of 81 to 83 °C.

Take `Cc1ccc(-c2c(CN)c(CC(C)C)nc(C(C)C)c2C(=O)O)cc1` [Example 26, 5-(aminomethyl)-6-isobutyl-2-isopropyl-4-(4-methylphenyl)nicotinic acid dihydrochloride]: at dipeptidyl peptidase IV (setting [1]), the half-maximal inhibitory concentration (IC50) was 5.1 nM.

In the case of `Cc1ccc(-c2c(CN)c(CC(C)C)nc(C)c2C(=O)OCc2ccc(C(=O)O)cc2)cc1` [Example 170, 4-[({[5-(aminomethyl)-6-isobutyl-2-methyl-4-(4-methylphenyl)pyridin-3-yl]carbonyl}oxy)methyl]benzoic acid dihydrochloride], the IC50 against dipeptidyl peptidase IV came out at 100 nM.

`Cc1ccc(-c2c(CSc3ccccc3C(N)=O)c(C)nc(CC(C)C)c2CN)cc1` [Example 210, 2-({[5-(aminomethyl)-6-isobutyl-2-methyl-4-(4-methylphenyl)pyridin-3-yl]methyl}thio)benzamide dihydrochloride]: at dipeptidyl peptidase IV (setting [1]), the IC50 is 12 nM.

As to `Cc1ccc(-c2c(CN)c(CC(C)C)nc(C)c2NC(=O)c2ccc(F)cc2)cc1` [Example 267, N-[5-(aminomethyl)-6-isobutyl-2-methyl-4-(4-methylphenyl)pyridin-3-yl]-4-fluorobenzamide dihydrochloride], the IC50 on dipeptidyl peptidase IV (setting [1]) was 7.4 nM.

For the compound `COC(=O)c1cn(C)nc1OCc1c(C)nc(CC(C)C)c(CN)c1-c1ccc(C)cc1` [Example 305, methyl 3-{[5-(aminomethyl)-6-isobutyl-2-methyl-4-(4-methylphenyl)pyridin-3-yl]methoxy}-1-methyl-1H-pyrazole-4-carboxylate dihydrochloride], the IC50 on dipeptidyl peptidase IV (setting [1]) was found to be 3.5 nM.

Turning to `Cc1ccc(-c2c(CC(=O)N3CCOCC3)c(C)nc(CC(C)C)c2CN)cc1` [Example 312, {[2-isobutyl-6-methyl-4-(4-methylphenyl)-5-(2-morpholin-4-yl-2-oxoethyl)pyridin-3-yl]methyl}amine dihydrochloride], the IC50 on dipeptidyl peptidase IV (setting [1]) was found to be 20 nM.

On to `Cc1ccc(-c2c(CN)c(CC(C)C)nc(C)c2NC(=O)c2cnoc2)cc1` [Example 350, N-[5-(aminomethyl)-6-isobutyl-2-methyl-4-(4-methylphenyl)pyridin-3-yl]isoxazole-4-carboxamide dihydrochloride], for which, on dipeptidyl peptidase IV (setting [1]), the IC50 was determined as 15 nM.

Regarding `CCOC(=O)C1CCN(C(=O)Cc2c(C)nc(CC(C)C)c(CN)c2-c2ccc(C)cc2)CC1` [Example 421, ethyl 1-{[5-(aminomethyl)-6-isobutyl-2-methyl-4-(4-methylphenyl)pyridin-3-yl]acetyl}piperidine-4-carboxylate dihydrochloride], the IC50 at dipeptidyl peptidase IV (setting [1]) worked out at 16 nM.

In the case of `Cc1ccc(-c2c(CC(=O)N3CCC(C(=O)O)CC3)c(C)nc(CC(C)C)c2CN)cc1` [Example 422, 1-{[5-(aminomethyl)-6-isobutyl-2-methyl-4-(4-methylphenyl)pyridin-3-yl]acetyl}piperidine-4-carboxylic acid dihydrochloride], the IC50 on dipeptidyl peptidase IV (setting [1]) came out at 7.3 nM.
